According to patent US20250248973A1, “CANNABINOID RECEPTOR 1 ANTAGONISTS/INVERSE AGONISTS AND USES THEREOF” (Corbus Pharmaceuticals, Inc., priority 2022, published 2025):

Legend:
[1] = target: Human CB1 Receptor-1b (hCB1b) (Homo sapiens (Human), UniProt P21554); test: hCB1b Gai cyclic AMP (cAMP) TR-FRET assay, antagonism of EC80 CP55940 with forskolin; format: cell-based; conditions: hCB1b cells, 30 min pre-incubation, read-out: CB1b IC50
Protocol: (§1) Example 3. Biochemical Methods Human CB1 Receptor-1 (hCB1) and Human CB1 Receptor-1b (hCBib)
(§2) hCB1/hCB1 b Gai Cyclic AMP (cAMP) Assays: Cells were seeded in a 384-well plate at an appropriate density from frozen cells. The cAMP assays were performed according to the manufacturer's protocol using MULTISCREEN™ TR-FRET cAMP 1.0 No Wash Assay Kit. Cells (hCB1 or hCB1 b) were pre-incubated with customer compounds for 30 minutes at rt followed by addition of EC80 CP55940 concentration and Forskolin. Cells were then incubated for 20 minutes at 37C. The reaction was terminated by sequentially adding sequentially adding MULTISCREEN™ Eu-labeled cAMP and MULTISCREEN™ 650-labeled anti-cAMP antibody in lysis buffer. The plate was then incubated at rt for 30 minutes before reading fluorescent emissions at 620 nm and 665 with excitation at 314 nm on FlexStation III (Molecular Devices). The results are shown in Table 2 (“***” denotes an IC50<100 nM; “**” denotes an IC50 between 100 nM and 500 nM, and “*” denotes an IC50>500 nM).

[2] = target: Human CB1 Receptor-1 (hCB1) (Homo sapiens (Human), UniProt P21554); test: hCB1 Gai cyclic AMP (cAMP) TR-FRET assay, antagonism of EC80 CP55940 with forskolin; format: cell-based; conditions: hCB1 cells, 30 min pre-incubation
Sequence of Human CB1 Receptor-1 (hCB1) (P21554 whole entry): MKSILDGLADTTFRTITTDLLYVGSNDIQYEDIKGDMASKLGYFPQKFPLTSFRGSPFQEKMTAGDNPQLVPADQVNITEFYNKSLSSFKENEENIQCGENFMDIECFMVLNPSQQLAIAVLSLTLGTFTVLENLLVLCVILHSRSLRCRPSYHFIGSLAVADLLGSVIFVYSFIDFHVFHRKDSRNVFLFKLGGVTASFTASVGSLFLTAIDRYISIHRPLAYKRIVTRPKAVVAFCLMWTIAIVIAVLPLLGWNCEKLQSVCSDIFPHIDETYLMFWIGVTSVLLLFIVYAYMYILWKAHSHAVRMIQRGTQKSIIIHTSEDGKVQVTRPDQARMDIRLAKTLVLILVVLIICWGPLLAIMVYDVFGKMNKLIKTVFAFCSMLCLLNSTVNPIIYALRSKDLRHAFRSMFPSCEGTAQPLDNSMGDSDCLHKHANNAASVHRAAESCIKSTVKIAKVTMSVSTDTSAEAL
Protocol: as §1, §2

Sequence of Human CB1 Receptor-1b (hCB1b) (P21554 other isoform, or with tags, fused parts or gaps): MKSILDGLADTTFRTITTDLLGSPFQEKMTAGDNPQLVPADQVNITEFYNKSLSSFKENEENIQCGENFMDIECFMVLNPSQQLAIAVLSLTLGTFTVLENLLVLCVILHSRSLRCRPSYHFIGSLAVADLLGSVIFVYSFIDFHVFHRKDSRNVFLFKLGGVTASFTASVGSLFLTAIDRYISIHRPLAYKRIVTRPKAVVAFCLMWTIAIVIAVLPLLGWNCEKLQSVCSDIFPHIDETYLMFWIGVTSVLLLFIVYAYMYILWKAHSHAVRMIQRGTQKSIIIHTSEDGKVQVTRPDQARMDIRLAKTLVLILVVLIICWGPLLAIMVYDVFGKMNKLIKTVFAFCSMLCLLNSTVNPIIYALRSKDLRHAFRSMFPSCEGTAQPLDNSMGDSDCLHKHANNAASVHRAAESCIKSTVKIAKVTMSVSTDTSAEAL

Compound	IC50 [1] [µM]	IC50 [2] [µM]
O=S(=O)(/N=C(\NCCS(=O)(=O)N1CCNCC1)N1C[C@H](c2ccccc2)C(c2ccc(Cl)cc2)=N1)c1ccc(Cl)cc1 [Compound 159, (S,E)-3-(4-chlorophenyl)-N′-((4-chlorophenyl)sulfonyl)-4-phenyl-N-(2-(piperazin-1-ylsulfonyl)ethyl)-4,5-dihydro-1H-pyrazole-1-carboximidamide]	< 0.1	< 0.1
C[C@H](CN/C(=N\S(=O)(=O)c1ccc(C(F)(F)F)cc1)N1C[C@H](c2ccccc2)C(c2ccc(Cl)cc2)=N1)S(N)(=O)=O [Compound 17, (S,E)-3-(4-chlorophenyl)-4-phenyl-N-((R)-2-sulfamoylpropyl)-N′-((4-(trifluoromethyl)phenyl)sulfonyl)-4,5-dihydro-1H-pyrazole-1-carboximidamide]	> 0.5	< 0.1
NS(=O)(=O)CCN/C(=N\S(=O)(=O)c1ccc(Cl)cc1)N1C[C@H](c2ccccc2)C(c2ccc(F)cc2)=N1 [Compound 45, (S,E)-N′-((4-chlorophenyl)sulfonyl)-3-(4-fluorophenyl)-4-phenyl-N-(2-sulfamoylethyl)-4,5-dihydro-1H-pyrazole-1-carboximidamide]	< 0.1	< 0.1
NS(=O)(=O)N1CC(N/C(=N\S(=O)(=O)c2ccc(Cl)cc2)N2C[C@H](c3ccccc3)C(c3ccc(Cl)cc3)=N2)C1 [Compound 191, (S,E)-3-(4-chlorophenyl)-N′-((4-chlorophenyl)sulfonyl)-4-phenyl-N-(1-sulfamoylazetidin-3-yl)-4,5-dihydro-1H-pyrazole-1-carboximidamide]	< 0.1	< 0.1
NS(=O)(=O)[C@H]1CC[C@@H](N/C(=N/S(=O)(=O)c2ccc(Cl)cc2)N2C[C@H](c3ccccc3)C(c3ccc(F)cc3)=N2)C1 [Compound 147, (S,Z)-N′-((4-chlorophenyl)sulfonyl)-3-(4-fluorophenyl)-4-phenyl-N-((1R,3S)-3-sulfamoylcyclopentyl)-4,5-dihydro-1H-pyrazole-1-carboximidamide]	0.1 to 0.5	0.1 to 0.5
C#Cc1ccc(S(=O)(=O)N=C(NCCS(N)(=O)=O)N2C[C@H](c3ccccc3)C(c3ccc(F)cc3)=N2)cc1 [Compound 59, (S)-N′-((4-ethynylphenyl)sulfonyl)-3-(4-fluorophenyl)-4-phenyl-N-(2-sulfamoylethyl)-4,5-dihydro-1H-pyrazole-1-carboximidamide]	< 0.1	0.1 to 0.5
NS(=O)(=O)CCNC(=NS(=O)(=O)c1ccccc1Cl)N1C[C@H](c2ccccc2)C(c2ccc(Cl)cc2)=N1 [Compound 29, (S)-3-(4-chlorophenyl)-N′-((2-chlorophenyl)sulfonyl)-4-phenyl-N-(2-sulfamoylethyl)-4,5-dihydro-1H-pyrazole-1-carboximidamide]	< 0.1	< 0.1
CN1CCN(S(=O)(=O)CCN/C(=N\S(=O)(=O)c2ccc(Cl)cc2)N2C[C@H](c3ccccc3)C(c3ccc(Cl)cc3)=N2)CC1 [Compound 157, (S,E)-3-(4-chlorophenyl)-N′-((4-chlorophenyl)sulfonyl)-N-(2-((4-methylpiperazin-1-yl)sulfonyl)ethyl)-4-phenyl-4,5-dihydro-1H-pyrazole-1-carboximidamide]	0.1 to 0.5	< 0.1
NS(=O)(=O)[C@@H]1CC[C@@H](N/C(=N/S(=O)(=O)c2ccc(Cl)cc2)N2C[C@H](c3ccccc3)C(c3ccc(Cl)cc3)=N2)C1 (single isomer, unassigned) [Compound 141]	0.1 to 0.5	0.1 to 0.5
CNS(=O)(=O)CCN/C(=N\S(=O)(=O)c1ccc(Cl)cc1)N1C[C@H](c2ccccc2)C(c2ccc(Cl)cc2)=N1 [Compound 169, (S,E)-3-(4-chlorophenyl)-N′-((4-chlorophenyl)sulfonyl)-N-(2-(N-methylsulfamoyl)ethyl)-4-phenyl-4,5-dihydro-1H-pyrazole-1-carboximidamide]	< 0.1	< 0.1
C[C@@H](CN/C(=N\S(=O)(=O)c1ccc(F)cc1)N1C[C@H](c2ccccc2)C(c2ccc(Cl)cc2)=N1)S(N)(=O)=O [Compound 13, (S,E)-3-(4-chlorophenyl)-N′-((4-fluorophenyl)sulfonyl)-4-phenyl-N-((S)-2-sulfamoylpropyl)-4,5-dihydro-1H-pyrazole-1-carboximidamide]	< 0.1	< 0.1
NS(=O)(=O)N1CC[C@@H](N/C(=N/S(=O)(=O)c2ccc(Cl)cc2)N2C[C@H](c3ccccc3)C(c3ccc(Cl)cc3)=N2)C1 [Compound 247, (S,Z)-3-(4-chlorophenyl)-N′-((4-chlorophenyl)sulfonyl)-4-phenyl-N-((R)-1-sulfamoylpyrrolidin-3-yl)-4,5-dihydro-1H-pyrazole-1-carboximidamide]	< 0.1	0.1 to 0.5
CC(CN/C(=N\S(=O)(=O)c1ccc(Cl)cc1)N1C[C@H](c2ccccc2)C(c2ccc(Cl)cc2)=N1)NS(N)(=O)=O (stereo partly drawn) [Compound 185, (4S,E)-3-(4-chlorophenyl)-N′-((4-chlorophenyl)sulfonyl)-4-phenyl-N-(2-(sulfamoylamino)propyl)-4,5-dihydro-1H-pyrazole-1-carboximidamide]	< 0.1	0.1 to 0.5
CN(C)S(=O)(=O)CCN/C(=N\S(=O)(=O)c1ccc(F)cc1)N1C[C@H](c2ccccc2)C(c2ccc(F)cc2)=N1 [Compound 167, (S,E)-N-(2-(N,N-dimethylsulfamoyl)ethyl)-3-(4-fluorophenyl)-N′-((4-fluorophenyl)sulfonyl)-4-phenyl-4,5-dihydro-1H-pyrazole-1-carboximidamide]	< 0.1	< 0.1
CN(CCNC(=NS(=O)(=O)c1ccc(Cl)cc1)N1C[C@H](c2ccccc2)C(c2ccc(Cl)cc2)=N1)S(N)(=O)=O [Compound 187, (S,E)-3-(4-chlorophenyl)-N′-((4-chlorophenyl)sulfonyl)-N-(2-(methyl(sulfamoyl)amino)ethyl)-4-phenyl-4,5-dihydro-1H-pyrazole-1-carboximidamide]	0.1 to 0.5	0.1 to 0.5
C[C@H](CS(N)(=O)=O)N/C(=N\S(=O)(=O)c1ccc(Cl)cc1)N1C[C@H](c2ccccc2)C(c2ccc(F)cc2)=N1 [Compound 57, (S,E)-N′-((4-chlorophenyl)sulfonyl)-3-(4-fluorophenyl)-4-phenyl-N-((R)-1-sulfamoylpropan-2-yl)-4,5-dihydro-1H-pyrazole-1-carboximidamide]	> 0.5	> 0.5
C[C@@H](CS(N)(=O)=O)NC(=NS(=O)(=O)c1ccc(Cl)cc1)N1C[C@H](c2ccccc2)C(c2ccc(F)cc2)=N1 (single isomer, unassigned) [Compound 61]	0.1 to 0.5	0.1 to 0.5
NS(=O)(=O)[C@H]1C[C@H](N/C(=N/S(=O)(=O)c2ccc(Cl)cc2)N2C[C@H](c3ccccc3)C(c3ccc(F)cc3)=N2)C1 (single isomer, unassigned) [Compound 127]	0.1 to 0.5	0.1 to 0.5
NS(=O)(=O)[C@@H]1CC[C@@H](N/C(=N/S(=O)(=O)c2ccc(Cl)cc2)N2C[C@H](c3ccccc3)C(c3ccc(F)cc3)=N2)C1 [Compound 153, (S,Z)-N′-((4-chlorophenyl)sulfonyl)-3-(4-fluorophenyl)-4-phenyl-N-((1R,3R)-3-sulfamoylcyclopentyl)-4,5-dihydro-1H-pyrazole-1-carboximidamide]	< 0.1	0.1 to 0.5
NS(=O)(=O)O[C@H]1C[C@@H](N/C(=N\S(=O)(=O)c2ccc(Cl)cc2)N2C[C@@H](c3ccccc3)C(c3ccc(Cl)cc3)=N2)C1 (single isomer, unassigned) [Compound 226]	< 0.1	> 0.5
NS(=O)(=O)C1CCN(/C(=N/S(=O)(=O)c2ccc(Cl)cc2)N2C[C@H](c3ccccc3)C(c3ccc(F)cc3)=N2)CC1 [Compound 111, (S,Z)-1-((((4-chlorophenyl)sulfonyl)imino)(3-(4-fluorophenyl)-4-phenyl-4,5-dihydro-1H-pyrazol-1-yl)methyl)piperidine-4-sulfonamide]	> 0.5	> 0.5
NS(=O)(=O)CCNC(=NS(=O)(=O)c1cccnc1)N1C[C@H](c2ccccc2)C(c2ccc(F)cc2)=N1 [Compound 69, (S)-3-(4-fluorophenyl)-4-phenyl-N′-(pyridin-3-ylsulfonyl)-N-(2-sulfamoylethyl)-4,5-dihydro-1H-pyrazole-1-carboximidamide]	> 0.5	> 0.5
NS(=O)(=O)N[C@H]1C[C@H](N/C(=N\S(=O)(=O)c2ccc(Cl)cc2)N2C[C@H](c3ccccc3)C(c3ccc(Cl)cc3)=N2)C1 (single isomer, unassigned) [Compound 241]	< 0.1	0.1 to 0.5
NS(=O)(=O)[C@H]1C[C@@H](N/C(=N/S(=O)(=O)c2ccc(Cl)cc2)N2C[C@H](c3ccccc3)C(c3ccc(F)cc3)=N2)C1 (single isomer, unassigned) [Compound 129]	> 0.5	> 0.5
C[C@@H](CN/C(=N\S(=O)(=O)c1ccc(C(F)(F)F)cc1)N1C[C@H](c2ccccc2)C(c2ccc(Cl)cc2)=N1)S(N)(=O)=O [Compound 18, (S,E)-3-(4-chlorophenyl)-4-phenyl-N-((S)-2-sulfamoylpropyl)-N′-((4-(trifluoromethyl)phenyl)sulfonyl)-4,5-dihydro-1H-pyrazole-1-carboximidamide]	0.1 to 0.5	< 0.1
